The record followed here is patent publication US12215104B2, “Anti-biofilm compounds” (UNIVERSITY OF LOUISVILLE RESEARCH FOUNDATION, INC., priority 2018, dated 2025).

The IC50 is the midpoint of a concentration-inhibition curve.

Read-outs that look alike come from different tables or passages of the source.

In data set [1] the test system is P. gingivalis adherence to S. gordonii. Kind of data set: Inhibition of P. gingivalis adherence to S. gordonii in two-species biofilm model. It is filed as cell-based, P. gingivalis ATCC33277; S. gordonii DL-1. The text has this: (§1) To assess the functional activity of the click products, compounds 28-57 (Groups I and II) and 90-124 (Group III) were examined for inhibition of P. gingivalis adherence to S. gordonii using an established biofilm model system as described in the Section 4.2.1 [41]. For each compound tested, an IC50 value for adherence inhibition was approximated after quantifying the ratio of green to red fluorescence and these values are shown in Tables 2, 3 and 4. Compounds were classified as strong (IC50<10 μM), moderate (IC50=10-20 μM) or weak (IC50>20 μM) inhibitors of adherence. Twelve compounds were identified as strong inhibitors and an additional ten compounds were classified as moderate inhibitors. […] Compounds 54, 56, 93, 95, 100, 102, 103, and 115 were also tested to determine if they affect the growth of P. gingivalis or S. gordonii. […] The sulfoxide group does impart asymmetry to the molecule; however, the mixture of enantiomers, assuming the peracid oxidation was racemic, was not separated and bioassayed. The Group III active compounds (95-117) all contain the 1,3,5-trisubstituted-2,4,6-triazine modeled after the Katzenellenbogen rendering of an active motif whereby the key leucine residues which mimicked the VXXLL receptor box lie in a triangular arrangement. While the original iteration of the Katzenellenbogen VXXLL mimics were the hydrophobic 3,5-disubstituted-di-N-alkyamino-triazine motifs, we introduced the hydrophobic 2- and 4-(fluorophenyl)amino groups at positions 3 and 5 of the 2,4,6-triazine (See Compounds 102, 111, 115, 122).
(§2) P. gingivalis ATCC33277 was grown in reduced trypticase soy broth (Difco) supplemented with 0.5 percent yeast extract, 1 μg/mL menadione, and 5 μg/mL hemin. Twenty five milliliters of medium were reduced for 24 h under anaerobic conditions by equilibrating in an atmosphere consisting of 10% CO2, 10% H2, and 80% N2. Following equilibration, P. gingivalis was inoculated in the media and grown for 48 h at 37° C. under anaerobic conditions. S. gordonii DL-1 (1) was cultured aerobically without shaking in brain heart infusion (BHI) broth supplemented with 1 percent yeast extract for 16 hours at 37° C. For some compounds that inhibited P. gingivalis adherence to S. gordonii, we determined their affect the planktonic growth of P. gingivalis and S. gordonii. Broth cultures were grown as described above and compared to cultures grown in the absence of the compound. Cell density of each culture was determined by measuring the optical density at 600 nm (O.D.600 nm) after 24 h of growth. The percent growth inhibition/stimulation was calculated using the following equation: [(O.D.600 nm of the control/O.D.600 nm of the culture grown in the presence of compound)−1]×100.
Two species biofilms were formed essentially as previously described. To prepare bacterial cells for biofilm culture, 10 ml of an overnight S. gordonii culture was centrifuged at 5600 rpm for 5 min and the cell pellet was suspended in 1 mL sterile PBS. Subsequently, 20 μL of 5 mg/ml hexidium iodide (Molecular Probes) was added to the cell suspension and incubated for 15 min with gentle shaking at room temperature in the dark. The labeled cells were centrifuged as described above, washed with phosphate buffered saline (10 mM Na2HPO4, […], […], and 2.7 mM KCl, pH 7.2; [PBS]) and the cell pellet was suspended in PBS at a final O.D.600 nm of 0.8. Similarly, 10 mL of a 48 h culture of P. gingivalis was centrifuged at 5600 rpm for 15 min, the cell pellet was suspended in 1 mL PBS and 20 μl of 5(6)-carboxyfluorescein N-hydroxysuccinimide ester (4 mg/ml, Molecular Probes, Inc.) was added. After incubation for 30 min with gentle shaking at room temperature in the dark, the suspension was centrifuged and washed as described above and suspended in PBS at a final O.D.600 nm of 0.4. […]

In the next data set the test system is P. gingivalis. Kind of data set: Effect on planktonic growth of P. gingivalis. The settings on record: incubated overnight in the presence of 40 μM compound. It counts as cell-based, P. gingivalis ATCC33277.
Source text: as §1, §2

Another data set concerns S. gordonii. Description: Effect on planktonic growth of S. gordonii. It counts as cell-based, S. gordonii DL-1. The settings on record: incubated overnight in the presence of 40 μM compound.
Source text: as §1, §2

Data set [2] concerns pre-existing 3-species biofilm. Description: Disruption of a pre-existing 3-species biofilm in vitro. The conditions noted are these: 20 μM. It counts as cell-based.
The test system of a further data set is gingival keratinocytes. Description: Induction of apoptosis in gingival keratinocytes. It counts as cell-based. The settings on record: gingival keratinocytes.

`Fc1ccc(Nc2nc(Nc3ccc(F)cc3)nc(-c3cn(-c4ccc(-c5nc(-c6ccc(F)cc6)c(-c6ccc(F)cc6)o5)cc4)nn3)n2)cc1` [Compound 115]: the values for the IC50 in data set [1] (Group III) and in data set [1] (read-out: IC50 for inhibition of adherence of P. gingivalis to S. gordonii) were 2300 nM and 2300 to 5300 nM, respectively. Besides, in the data set with P. gingivalis, the “effect on growth of planktonic cultures of P. gingivalis” value is on record as “No effect on growth”. Also, in the data set with S. gordonii, the “effect on growth of planktonic cultures of S. gordonii” value is given as “No effect on growth”. Moreover, the “disruption of pre-existing 3-species biofilm” value in data set [2] (time treated 1 h) is reported as 15.26; in data set [2] (time treated 2 h), 45.62; in data set [2] (time treated 3 h), 76.06. Moreover, the values for the early apoptosis with gingival keratinocytes (5 μM), with gingival keratinocytes (10 μM) and in the data set with gingival keratinocytes (20 μM) were 3.89, 4.07 and 4.06, respectively. The late apoptosis turned out to be 4.21 with gingival keratinocytes (5 μM), 2.47 with gingival keratinocytes (10 μM) and 2.80 with gingival keratinocytes (20 μM). Also, the live cells with gingival keratinocytes (5 μM) is recorded as 87.85; in the data set with gingival keratinocytes (10 μM), 91.25; in the data set on gingival keratinocytes (20 μM), 91.20.
